Some test systems named below: CAKI-1 renal; RXF 393 renal; SF-268 CNS; SK-MEL-5 melanoma; SW-620 colon; ACHN renal; HCC-2998 colon; UACC-62 melanoma; BT-549 breast; DU-145 prostate.
What all share (experiment): NCI-60 cell line screen, 48 h

Each structure is given as a SMILES string.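 Step 1: Grow cells in 96-well plates. Step 2: Expose to compound for 48 hours at 5 concentrations. Step 3: Interpolate endpoints linearly; if unreached, use highest concentration. GI50 is the concentration that inhibits growth by half. TGI is the concentration that stops growth completely.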

As for `CN1C(c2ccccc2)CC(=Nc2ccccc2)CC1c1ccccc1` (stereo unspecified), the TGI with CAKI-1 renal turned out to be 42.3 µM; with RXF 393 renal, 31.4 µM; in the assay on SF-268 CNS it was 28.7 µM; in the assay on SK-MEL-5 melanoma it was 22.8 µM; in the assay with SW-620 colon, 22.9 µM.
As for `CCN=C1NN=C(c2ccccc2)c2cc(Cl)ccc2N1`, the TGI with ACHN renal was above 100 µM; in the assay on CAKI-1 renal, 36.9 µM; in the assay with HCC-2998 colon it was 34.4 µM; in the assay with RXF 393 renal it was 58 µM; in the assay with SF-268 CNS it was 91.1 µM; in the assay with SK-MEL-5 melanoma, 30.7 µM. Moreover, the figures for the TGI in the assay on SW-620 colon and in the assay on UACC-62 melanoma were 63.8 µM and 31.7 µM, respectively.
As to `CCOC(=O)/C(C#N)=C(O)/C(=C/c1ccccc1Cl)NC(=O)c1ccccc1`, the TGI with ACHN renal is above 100 µM; with CAKI-1 renal, above 100 µM; in the assay with HCC-2998 colon, above 100 µM; with SF-268 CNS, above 100 µM; with SK-MEL-5 melanoma, above 100 µM; in the assay with SW-620 colon it was 52.2 µM. The TGI in the assay on UACC-62 melanoma is above 100 µM.
For the compound `COc1ccc(Cl)cc1N1C(=O)C(Cl)=C(Nc2cccc(O)c2)C1=O`, the GI50 was 16.9 µM with ACHN renal; 11.8 µM in the assay on BT-549 breast; 19.2 µM in the assay on CAKI-1 renal; 21.8 µM with DU-145 prostate; 7.36 µM in the assay with RXF 393 renal; 13.2 µM in the assay on SF-268 CNS. For the same compound, the results for the GI50 with SK-MEL-5 melanoma, with SW-620 colon and in the assay on UACC-62 melanoma were 23 µM, 27.4 µM and 12.3 µM, respectively. The TGI with ACHN renal was 48.6 µM; with BT-549 breast it was 46.2 µM; in the assay on CAKI-1 renal it was 55.2 µM; in the assay with DU-145 prostate, above 100 µM; with RXF 393 renal it was 29 µM; with SF-268 CNS, 30.7 µM. The TGI stood at 39.8 µM with SK-MEL-5 melanoma, 63 µM in the assay on SW-620 colon and 27.9 µM in the assay on UACC-62 melanoma.
Regarding `C/C(=N\NC(=S)N(C)C)c1ncc[nH]1`, the TGI with ACHN renal is 31.4 µM; in the assay on HCC-2998 colon it was 38.6 µM; in the assay with RXF 393 renal it was above 100 µM; with SF-268 CNS, above 100 µM; in the assay with SW-620 colon, above 100 µM; in the assay on UACC-62 melanoma, 7.67 µM.
Turning to `Cc1cccc(C(C)(C)C)c1NC(=O)CC1C(=O)Nc2ccccc2S1=O` (stereo unspecified), the TGI with ACHN renal, in the assay on CAKI-1 renal, with HCC-2998 colon, in the assay with SF-268 CNS and in the assay with SW-620 colon was above 100 µM each time.
For the compound `COc1ccccc1NC(=O)CC(=O)n1nc(C)c(N=Nc2ccccc2F)c1C`, the TGI in the assay with ACHN renal was above 100 µM; in the assay on CAKI-1 renal, above 100 µM; in the assay on HCC-2998 colon it was above 100 µM; in the assay on RXF 393 renal, above 100 µM; in the assay with SF-268 CNS it was above 93.3 µM; in the assay on SK-MEL-5 melanoma, above 100 µM. For the same compound, the TGI with SW-620 colon and in the assay on UACC-62 melanoma was above 100 µM in each case.
Regarding `C/C(=N\NC(N)=S)c1ccc(/C(C)=N/NC(N)=S)cc1`, the TGI in the assay with ACHN renal, with HCC-2998 colon, in the assay on RXF 393 renal, in the assay on SF-268 CNS, with SK-MEL-5 melanoma and with SW-620 colon was above 100 µM each time. In the assay on UACC-62 melanoma, this compound yielded a TGI above 100 µM.
On to `Cc1cc2c(C(C)C)c(O)c(O)c3coc(/c1=c1/c(C)cc4c(C(C)C)c(=O)c(=O)c5coc1c45)c32`, for which the TGI in the assay on ACHN renal stood at 12.3 µM; in the assay with CAKI-1 renal, 26.9 µM; with HCC-2998 colon, 14.8 µM; with RXF 393 renal, 23.1 µM; in the assay on SF-268 CNS it was 24.1 µM; in the assay with SK-MEL-5 melanoma, 28.6 µM. In addition, the TGI in the assay with SW-620 colon was determined as 17.4 µM; with UACC-62 melanoma, 13.5 µM.
On to `C=CCOc1cc2c(cc1C(C)c1ccc(OC)cc1)OCO2` (stereo unspecified), for which the TGI is above 100 µM with ACHN renal; above 100 µM in the assay on CAKI-1 renal; above 100 µM in the assay on DU-145 prostate; 12.7 µM in the assay on HCC-2998 colon; 0.485 µM in the assay on RXF 393 renal; above 74.3 µM with SF-268 CNS. Moreover, the results for the TGI in the assay on SK-MEL-5 melanoma, with SW-620 colon and in the assay on UACC-62 melanoma were above 56.3 µM, above 100 µM and above 87.5 µM, respectively.
`N=C(c1ccccc1)N1CCCCC1`: the TGI with CAKI-1 renal, in the assay on HCC-2998 colon, with RXF 393 renal, with SF-268 CNS and in the assay with SW-620 colon was above 100 µM each time.
On to `COc1cc2c(cc1OC)-c1c(cnn1C1OC(COC(C)=O)C(OC(C)=O)C(OC(C)=O)C1OC(C)=O)CC2` (stereo unspecified), for which the TGI with ACHN renal, with CAKI-1 renal, in the assay with SF-268 CNS, with SK-MEL-5 melanoma, with SW-620 colon and with UACC-62 melanoma was above 100 µM each time.
In the case of `C/C(=N\NC(N)=S)c1ccc2c(c1)OCO2`, the TGI in the assay with ACHN renal, with CAKI-1 renal, in the assay with HCC-2998 colon, in the assay with RXF 393 renal, with SF-268 CNS and with SK-MEL-5 melanoma was above 100 µM in each case. Moreover, the TGI in the assay with SW-620 colon and in the assay with UACC-62 melanoma was above 100 µM each time.
Take `COc1cc2c(/C=C3/C(=O)Nc4ccccc43)c(Cl)n(Cc3ccccc3)c2cc1C`: the GI50 in the assay with ACHN renal, with BT-549 breast, with CAKI-1 renal, in the assay on DU-145 prostate, in the assay with RXF 393 renal and in the assay on SF-268 CNS was above 100 µM in each case. In addition, the GI50 in the assay on SK-MEL-5 melanoma was 42.2 µM; in the assay with SW-620 colon it was above 100 µM; with UACC-62 melanoma, above 100 µM. Moreover, the TGI with ACHN renal, with BT-549 breast, in the assay on CAKI-1 renal, in the assay on DU-145 prostate, in the assay on RXF 393 renal and in the assay on SF-268 CNS was above 100 µM in each case. Also, the TGI in the assay with SK-MEL-5 melanoma, with SW-620 colon and with UACC-62 melanoma was above 100 µM in each case.
With `CC(C)=CC(=O)Cc1nc2ccccc2[nH]c1=O`, the TGI with ACHN renal was above 100 µM; in the assay with CAKI-1 renal, above 100 µM; with HCC-2998 colon, above 100 µM; with RXF 393 renal, 79.2 µM; in the assay on SF-268 CNS it was above 100 µM; in the assay on SK-MEL-5 melanoma, above 100 µM. In addition, the TGI with SW-620 colon and in the assay with UACC-62 melanoma was above 100 µM in each case.

The values are drawn from PubChem BioAssay (NCI).
